Measured values reported in PMC4844649, “A first-in-Asian phase 1 study to evaluate safety, pharmacokinetics and clinical activity of VS-6063, a focal adhesion kinase (FAK) inhibitor in Japanese patients with advanced solid tumors” (Cancer Chemotherapy and Pharmacology, 2016).
Where “and” joins values, the source holds several entries; their conditions need not be identical. Equal entries are not always repeated. Entries after “also recorded” stand apart in the source; their conditions may differ. Where two headings read alike, the source gives them in different places.

How the values were obtained:
recombinant human FAK = details: in vitro; background statement, no reference given; read-out: IC50, inhibition of recombinant human FAK activity; cited from earlier work
[1] = system: advanced solid tumor malignancies; assay: antitumor activity by RECIST v1.1; type: in vivo, human
Description: This was a phase 1, open-label, dose-escalation study to evaluate the safety and PK of VS-6063, a FAK inhibitor in Japanese subjects with advanced solid tumor malignancies. This study was expected to enroll up to 18 evaluable subjects with non-hematologic malignancies if 6 subjects were assigned at each of the 3 planned dose levels of 200, 400, and 600 mg BID. VS-6063 was administered orally, BID, in continuous 21 day cycles. Subject enrollment proceeded according to a standard 3 + 3 design. In the absence of DLT, each subject received oral VS-6063 (BID) for a minimum of 21 days of continuous daily dosing (1 cycle) and could continue to receive additional cycles of study treatment until disease progression was documented or other treatment discontinuation criteria were met. All patients within a cohort were required to complete 1 cycle (21 days) of dosing with <1 of 3 or <2 of 6 subjects experiencing a DLT prior to escalation to the next dose level in a new cohort. Three subjects were to be treated at each dose level until the first instance of DLT, after which up to 6 subjects were to be treated at that dose level. […] The MTD was defined as the highest dose level studied at which <1 subject out of 3 or <2 subjects out of 6 experienced a DLT. The RP2D was to be determined in discussion among the sponsor, medical monitor, and investigators. Observations related to PK and any VS-6063-related toxicities were included in the rationale supporting the RP2D. Safety and tolerability was assessed by the incidence and severity of AEs as determined by National Cancer Institute (NCI) Common Terminology Criteria for Adverse Events (CTCAE v4.03). The antitumor activity of study treatment was assessed according to the Response Evaluation Criteria in Solid Tumors (RECIST v1.1).

other nontarget kinases = details: background statement, no reference given; cited from earlier work
recombinant human Pyk2 = details: in vitro; background statement, no reference given; read-out: IC50, inhibition of recombinant human Pyk2 activity; cited from earlier work
[2] = basis of the BID schedule; first-in-human experience; cited from earlier work
[3] = phase 1 plasma pharmacokinetics, Cycle 1 Days 1 and 15; type: in vivo, human; details: for V z, individual values: Day 15, N = 2, individual values are presented; for half-life / Cmax / AUC(0-t) / Tmax / AUC(0-inf): human, plasma; for AUC(0-t): read-out: AUC0–12h, GM (CV %)
Description: Pharmacokinetic samples were to be collected for determination of VS-6063 concentration and potential metabolites at the time points of Pre-dose (within 30 min of VS-6063 dosing), postdose (15 min, 30 min, and 1, 2, 4, 8, 12, and 24 h after VS-6063 administration) during Cycle 1 on Days 1 and 15. The analytical laboratory measured plasma concentrations using a validated method. Phoenix WinNonlin (v 6.3, Pharsight Inc., Mountain View, CA) was used to estimate all pharmacokinetic parameters using the non-compartmental analysis tool and the plasma model. Cmax and Tmax were determined by direct assessment (no calculations) of the concentration versus time data. All AUC calculations followed the linear trapezoidal rule. As data permitted, the terminal elimination rate constant (lambda z, λz) for VS-6063 data was calculated. Lambda z was determined by the slope of the regression line of the natural log transformed concentrations versus time with at least three data points not including the Cmax and a correlation coefficient (R^2) of regression >0.90. In instances where the λz range was not at least twofold greater than the calculated half-life, the resulting values (AUCINF, CL/F and Vz/F) were deemed unreliable and were not reported, although the half-life will be calculated and reported if the λz range met the R^2 requirements. The following PK parameters were to be calculated: oral clearance (CL/F), maximum concentration (Cmax), Tmax, half-life (T1/2), area under the curve (AUC), and other relevant parameters.

[4] = 24-h urine collection, elimination of VS-6063 and metabolites; type: in vivo, human; details: all dose cohorts
From the text: To assess the elimination of VS-6063 and its potential metabolites, total 24-h urine output was to be collected on Cycle 1 Day 1 and Cycle 1 Day 15 in conjunction with PK sampling.

[5] = po, 200 mg, 200 mg BID oral, n = 3, Day 1
[6] = po, 200 mg, 200 mg BID oral, n = 3, Day 15
[7] = po, 400 mg, 400 mg BID oral, n = 3, Day 1
[8] = po, 400 mg, 400 mg BID oral, n = 3, Day 15
[9] = po, 600 mg, 600 mg BID oral, n = 3, Day 1
[10] = po, 600 mg, 600 mg BID oral, n = 3, Day 15

In the case of `CNC(=O)c1ccc(Nc2ncc(C(F)(F)F)c(NCc3nccnc3N(C)S(C)(=O)=O)n2)cc1` [VS-6063, defactinib], the IC50 (recombinant human FAK) is listed as 600 pM, the “median time to disease progression, range across dose cohorts” value ([1]; 200, 400, 600 mg cohorts) is listed as 61 to 64 days and the objective radiographic responses ([1]; 200–600 mg BID) is listed as “No objective radiographic responses were observed”. The “best response overall: stable disease” value ([1]; out of 9 subjects (33 %), 1 subject in each dose cohort) was 3 subjects, the durable stable disease ([1]; two subjects (malignant mesothelioma 400 mg and rectal cancer 600 mg)) was “approximately 24 weeks” and the “selectivity for FAK and Pyk2 over other nontarget kinases” value (other nontarget kinases) was “more than 100 fold”. The IC50 (recombinant human Pyk2) was 600 pM, the observed human half-life [2] was 9.0 h and the “V z, individual values” ([3]; 200 mg BID oral) was 334 L and 99.6 L. For the same compound, the “exposure compared with that previously reported in non-Japanese subjects” value ([3]; 400 mg BID (RP2D)) was “comparable; also recorded: consistent with previously reported data in non-Japanese patients; also recorded: comparable to that previously reported in non-Japanese patients”, the “V z, individual values” ([3]; 600 mg BID oral) was 158 L and 3060 L and the “increase in exposure at doses above 400 mg BID” value ([3]; 600 mg versus 400 mg BID) was “did not result in a significant increase in VS-6063 exposure”. For the same compound, the “dose proportionality of plasma exposure (Cmax and AUC)” value ([3]; 200–600 mg BID) was “less than dose proportional”, the half-life ([3]; oral, 200–600 mg BID, Days 1 and 15, read-out: median half-life values, range across all dose regimens and both PK study days) was 2.3 to 4.3 h and the Cmax [3, 5] was 630 ng/mL. The AUC(0-t) [3, 5] was 3780 ng·h/mL, the Tmax ([3]; po, 200 mg, 200 mg BID oral, n = 3, Day 1, read-out: T max, median (range)) was 2 h and the half-life ([3]; po, 200 mg, 200 mg BID oral, n = 3, Day 1, read-out: t 1/2, median (range) (converted)) was 4.3 h. It also gave a Cmax [3, 6] of 930 ng/mL, an AUC(0-t) [3, 6] of 6240 ng·h/mL and a Tmax ([3]; po, 200 mg, 200 mg BID oral, n = 3, Day 15, read-out: T max, median (range)) of 2 h. The half-life ([3]; po, 200 mg, 200 mg BID oral, n = 3, Day 15, read-out: t 1/2, median (range) (converted)) was 2.95 h, the Cmax [3, 7] was 670 ng/mL and the AUC(0-t) [3, 7] was 3370 ng·h/mL. It also gave a Tmax ([3]; po, 400 mg, 400 mg BID oral, n = 3, Day 1, read-out: T max, median (range)) of 2 h, a half-life ([3]; po, 400 mg, 400 mg BID oral, n = 3, Day 1, read-out: t 1/2, median (range) (converted)) of 2.45 h and a Cmax [3, 8] of 960 ng/mL. The AUC(0-t) [3, 8] was 5710 ng·h/mL, the Tmax ([3]; po, 400 mg, 400 mg BID oral, n = 3, Day 15, read-out: T max, median (range)) was 2 h and the half-life ([3]; po, 400 mg, 400 mg BID oral, n = 3, Day 15, read-out: t 1/2, median (range) (converted)) was 3 h. For the same compound, the Cmax [3, 9] was 610 ng/mL, the AUC(0-t) [3, 9] was 2680 ng·h/mL and the Tmax ([3]; po, 600 mg, 600 mg BID oral, n = 3, Day 1, read-out: T max, median (range)) was 2 h. It also gave a half-life ([3]; po, 600 mg, 600 mg BID oral, n = 3, Day 1, read-out: t 1/2, median (range) (converted)) of 2.79 h, a Cmax [3, 10] of 980 ng/mL and an AUC(0-t) [3, 10] of 4880 ng·h/mL. The Tmax ([3]; po, 600 mg, 600 mg BID oral, n = 3, Day 15, read-out: T max, median (range)) was 2 h, the half-life ([3]; po, 600 mg, 600 mg BID oral, n = 3, Day 15, read-out: t 1/2, median (range) (converted)) was 2.27 h and the Tmax ([3]; po, oral doses of 200–600 mg BID, all cohorts, read-out: Tmax range) was 0.5 to 4 h. The Tmax ([3]; po, oral doses of 200–600 mg BID, all cohorts, read-out: median Tmax) was 2 h, the AUC(0-inf) ([3]; 200 mg BID oral, n = 3, Day 1) was 4390 ng·h/mL and the AUC(0-inf) ([3]; 400 mg BID oral, n = 3, Day 1) was 3840 ng·h/mL. The AUC(0-inf) ([3]; 600 mg BID oral, n = 3, Day 1) was 3000 ng·h/mL, the detection in urine [4] was “detected in the urine of all patients” and the “amount in urine, percent relative to the total dose administered, range” value ([4]; 24-h urine) was 0.0439 to 0.356%. For the same compound, the CL renal ([4]; human, oral, 24-h urine, Days 1 and 15, read-out: mean renal clearance (CLr), range) was 1.43 to 2.98 mL/min.
